In brackets after ≈: the same amount, converted by molar mass. Where a name gives a salt, the structure may show the parent alone. Read-outs that look alike come from different tables or passages of the source.
What was measured:
Type in all cases: cell-based
E. faecalis ATCC 29212 = experiment: In vitro antibacterial evaluation, MIC by agar dilution, E. faecalis ATCC 29212; conditions: Enterococcus faecalis, ATCC29212; E. faecalis ATCC 29212; read-out: MIC
Procedure: (§1) The compounds of the invention were evaluated against several β-lactamresistant bacteria strains by determining the minimum inhibitory concentration (MIC, μg/ml) of each compound with respect to each strain. The MIC, the lowest concentration of antibiotic which inhibits growth of the test organism, was determined by the agar dilution method.
(§2) To determine the MIC for bacterial isolates, the test compound was incorporated in a series of two-fold dilutions into liquified Mueller-Hinton agar. Upon solidification, a number of different bacterial strains were spot inoculated with a replicating device onto the agar surface. […] The procedures used in these studies have been standardized by the National Committee for Clinical Laboratory Standards (NCCLS), as per the NCCLS publication entitled METHODS FOR DILUTION ANTIMICROBIAL SUSCEPTIBILITY TESTS (1991), which is incorporated herein by reference.
(§3) Aliquots of antimicrobial agents were prepared in phosphate buffered saline (PBS) at pH 7.2. Tween 20 or DMSO was used as a solubilizing vehicle as needed. Standard methods of vortexing, sonicating and gentle heat were used to facilitate solubilizing the test agent. Typically, the concentration of the stock solution was 10× that of the highest drug concentration tested. A 1.28 mg/mL stock solution was used with a subsequent highest working concentration of 128 μg/mL. Serial two-fold dilutions were done through ≤0.25 μg/mL. Each drug level was tested in duplicate. Two-fold drug dilutions were done in sterile 50 mL tubes with a final drug volume of 5 mL. Upon the addition of 45 mL of molten agar, a 10-fold dilution resulted. Two, 25 mL. plates were then poured into 15×150 mm square Petri plates with grids and allowed to harden.
(§4) A control plate with a reference drug, either cefotaxime, vancomycin or imipenem, was used as the positive growth control. Stock concentrations of reference antibiotics were prepared and frozen at -80° C. Upon preparation, the control plates were sealed and stored in the refrigerator for up to 1 week prior to use; however, imipenem control plates had to be prepared just prior to use. All test plates were used within 24 hours of preparation.
(§5) Satisfactory results were obtained where the inoculum contained about 10^4 colony forming units (cfu) ±0.5 logs. Starting with pure cultures of the test isolates on agar plates, a few isolated colonies were transferred to a tube of nutrient broth and allowed to grow 4-6 hours at 35°-36° C. to reach log-phase growth. Dropwise addition of the broth culture to PBS was done to match a 0.5 McFarland turbidity standard equal to 10^8 cfu/mL. This was further diluted ten-fold in PBS to reach a working inoculum concentration of 10^7 cfu/mL. When 1 μL of the working inoculum was applied to the agar surface a concentration of about 10^4 cfu per spot was obtained.
(§6) Disposable sterile 1 μL loops were used to inoculate test plates, with each isolate in a designated grid on the agar plate. An alternate method of inoculation involved the use of a replica plater, a device with 48 steel pins allowing the simultaneous inoculation of multiple isolates. After the spots had dried, the plates were incubated at 35°-36° C. for 16-20 hours. Endpoints were assessed as the minimum inhibitory concentration (MIC) of antimicrobial agent.

E. coli ATCC 25922 = experiment: In vitro antibacterial evaluation, MIC by agar dilution, E. coli ATCC 25922; conditions: Escherichia coli, ATCC25922, read-out: MIC
Procedure: as §1, §2, §3, §4, §5, §6

[1] = system: S. aureus 76 (Meth^R)(lac^+); experiment: In vitro antibacterial evaluation, MIC by agar dilution, S. aureus 76; conditions: Staphylococcus aureus, read-out: MIC
Procedure: as §1, §2, §3, §4, §5, §6

E. faecium ATCC 35667 = experiment: In vitro antibacterial evaluation, MIC by agar dilution, E. faecium ATCC 35667; conditions: Enterococcus faecium, ATCC35667, read-out: MIC
Procedure: as §1, §2, §3, §4, §5, §6

[2] = system: S. aureus Col8A (Meth^S)(lac^-); experiment: In vitro antibacterial evaluation, MIC by agar dilution, S. aureus Col8A; conditions: Staphylococcus aureus
Procedure: as §1, §2, §3, §4, §5, §6
The novel agents of this invention are notable for their enhanced activity against S. aureus Col and Enterococci (E. faecium and E. faecalis). The S. aureus Col strain is a high-level PBP2a producer, whereas S. aureus Col 8A, its isogenic partner, lacks PBP2a. […] Thus, the compounds of the present invention are effective against PBP2a-producing bacteria.

P. aeruginosa ATCC 27853 = experiment: In vitro antibacterial evaluation, MIC by agar dilution, P. aeruginosa ATCC 27853; conditions: Pseudomonas aeruginosa, ATCC27853, read-out: MIC
Procedure: as §1, §2, §3, §4, §5, §6

S. aureus ATCC 29213 = experiment: In vitro antibacterial evaluation, MIC by agar dilution, S. aureus ATCC 29213; conditions: Staphylococcus aureus, ATCC29213
Procedure: as §1, §2, §3, §4, §5, §6

S. haemolyticus (Meth^R) = experiment: In vitro antibacterial evaluation, MIC by agar dilution, S. haemolyticus; conditions: Staphylococcus haemolyticus, read-out: MIC
Procedure: as §1, §2, §3, §4, §5, §6

[3] = S. aureus ATCC 29213, read-out: MIC

| SMILES | MIC (E. faecalis ATCC 29212) [µg/mL] | MIC (E. coli ATCC 25922) [µg/mL] | MIC [1] [µg/mL] | MIC (E. faecium ATCC 35667) [µg/mL] | MIC [2] [µg/mL] | MIC (P. aeruginosa ATCC 27853) [µg/mL] | MIC (S. aureus ATCC 29213) [µg/mL] | MIC (S. haemolyticus (Meth^R)) [µg/mL] | MIC (S. aureus ATCC 29213; [3]) [µg/mL] |
| --- | --- | --- | --- | --- | --- | --- | --- | --- | --- |
| N=C(N)SCc1ccccc1SC1=C(C(=O)O)N2C(=O)[C@@H](NC(=O)CSCCCI)[C@H]2SC1 [Cmpd 134, (7R)-7-[(3-iodoprop-1-ylthioacetyl)amino]-3-(2-isothiouroniummethylphenylthio)-3-cephem-4-carboxylate, inner salt] | 0.5 | > 32 | 8 | 1 | 0.125 | > 32 | 0.125 | 16 |  |
| O=C(Cc1ccccc1)N[C@@H]1C(=O)N2C(C(=O)O)=C(Sc3ccnn3-c3cccc([N+](=O)[O-])c3)CS[C@H]12 [Cmpd 113, (7R)-7-[(Phenylacetyl)amino]-3-(1-N-(3-nitrophenyl)pyrazol-5-ylthio)-3-cephem-4-carboxylic acid] | 1 (≈ 1.86 µM) | > 32 | 16 (≈ 29.8 µM) | 4 (≈ 7.44 µM) | 0.125 (≈ 0.233 µM) | > 32 | 0.125 (≈ 0.233 µM) | > 32 |  |
| CSCC(=O)N[C@@H]1C(=O)N2C(C(=O)O)=C(Sc3ccccc3CSC(=N)NN)CS[C@H]12 [Cmpd 133, (7R)-7-[(methylthioacetyl)amino]-3-(2-(N-amino)isothiouroniummethylphenylthio)-3-cephem-4-carboxylate, inner salt] | 1 | > 32 | 8 | 1 | 0.125 | > 32 | 0.125 | 16 |  |
| CC(=O)NC(=N)SCc1ccccc1SC1=C(C(=O)O)N2C(=O)[C@@H](NC(=O)Cc3ccccc3)[C@H]2SC1 [Cmpd 78, (7R)-7-[(Phenylacetyl)amino]-3-(2-N-acetylamidinothiomethylphenylthio)-3-cephem-4-carboxylic acid] | 4 (≈ 7.19 µM) | > 32 | 16 (≈ 28.7 µM) | 4 (≈ 7.19 µM) | 0.25 (≈ 0.449 µM) | > 32 | 0.25 (≈ 0.449 µM) | > 32 |  |
| N=C(N)SCc1ccccc1SC1=C(C(=O)O)N2C(=O)[C@@H](NC(=O)/C(=N\O)c3ccccc3)[C@H]2SC1 [Cmpd 136, (7R)-7-[(Z)-2-(Phenyl)-2-(hydroxyimino)acetamido]-3-(2-isothiouroniummethylphenylthio)-3-cephem-4-carboxylate, inner salt] | 0.5 | > 32 | 4 | 1 |  | > 32 |  | 4 | 0.125 |
| N=C(N)NCc1ccccc1SC1=C(C(=O)O)N2C(=O)[C@@H](NC(=O)Cc3ccccc3)[C@H]2SC1 [Cmpd 128, (7R)-7-[(Phenylacetyl)amino]-3-(2-guanidiniummethylphenylthio)-3-cephem-4-carboxylate, inner salt] | 2 | > 32 | 16 | 2 | ≤ 0.06 | > 32 |  |  | ≤ 0.06 |
| N=C(N)SCCc1ccccc1SC1=C(C(=O)O)N2C(=O)[C@@H](NC(=O)Cc3ccccc3)[C@H]2SC1 [Cmpd 100, (7R)-7-[(Phenylacetyl)amino]-3-(2-(2-isothiouronium)ethylphenylthio)-3-cephem-4-carboxylate, inner salt] | 1 | > 32 | 8 | 4 |  | > 32 |  | 16 | < 0.06 |
| N=C(N)SCc1ccccc1SC1=C(C(=O)O)N2C(=O)[C@@H](NC(=O)Cc3ccc(O)cc3)[C@H]2SC1 [Cmpd 99, (7R)-7-[((4-Hydroxyphenyl)acetyl)amino]-3-(2-isothiouroniummethylphenylthio)-3-cephem-4-carboxylic acid, inner salt] | 1 | > 32 | 16 | 1 |  | > 32 |  | 16 | 0.125 |
| N=C(N)SCc1ccccc1SC1=C(C(=O)O)N2C(=O)[C@@H](NC(=O)/C(=N\O)c3csc(N)n3)[C@H]2SC1 [Cmpd 129, (7R)-7-[(Z)-2-(Aminothiazol-4-yl)-2-(hydroxyimino)acetamido]-3-(2-isothiouroniummethylphenylthio)-3-cephem-4-carboxylate, inner salt] | 0.25 | 2 | 8 |  | ≤ 0.06 | > 32 |  | 16 | ≤ 0.06 |
| O=C(COc1ccccc1)N[C@@H]1C(=O)N2C(C(=O)O)=C(Sc3ccnn3-c3ccccc3)CS[C@H]12 [Cmpd 112, (7R)-7-[(phenyloxyacetyl)amino]-3-(1-N-phenylpyrazol-5-ylthio) -3-cephem-4-carboxylic acid] | 4 (≈ 7.87 µM) | > 32 | 16 (≈ 31.5 µM) | 4 (≈ 7.87 µM) |  | > 32 |  | 32 (≈ 62.9 µM) |  |
| CSCC(=O)N[C@@H]1C(=O)N2C(C(=O)O)=C(Sc3ccccc3CSC(=N)NC(=N)N)CS[C@H]12 [Cmpd 126, (7R)-7-[(methylthioacetyl)amino]-3-(2-(N-amidino)isothiouroniummethylphenylthio)-3-cephem-4-carboxylate, inner salt] | 1 | > 32 | 16 | 2 | 0.125 | > 32 | 0.125 |  |  |
| Nc1nc(/C(=N/OCCF)C(=O)N[C@@H]2C(=O)N3C(C(=O)O)=C(Sc4ccnn4-c4ccccc4)CS[C@H]23)c(Cl)s1 [Cmpd 98, (7R)-7-[(Z)-2-(2-amino-5-chlorothiazol-4-yl)-2-(2-fluoroethyloxyimino)acetamido]-3-(1-N-phenylpyrazol-5-ylthio)-3-cephem-4-carboxylic acid] | 1 (≈ 1.6 µM) | 8 (≈ 12.8 µM) | 8 (≈ 12.8 µM) | 4 (≈ 6.41 µM) |  | 16 (≈ 25.6 µM) |  | 8 (≈ 12.8 µM) | 0.5 (≈ 0.801 µM) |

From patent US5607926A, “Cephalosporin antibiotics” (Microcide Pharmaceuticals, Inc., priority 1995, dated 1997)
